Source: the NIST ThermoML archive (doi:10.1021/je500053c)

What was measured:
[1] = 101.33 kPa, Liquid, Vibrating tube method
[2] = xn = mol fraction of the nth substance listed; settings: 101 kPa, Liquid, Vibrating tube method

CCCCCC[n+]1ccn(C)c1.O=S(=O)([N-]S(=O)(=O)C(F)(F)F)C(F)(F)F
[1]
Settings | mass density [kg/m3]
288.15 K | 1381.4
298.15 K | 1372
308.15 K | 1362.7
318.15 K | 1353.5

CCCCn1cc[n+](C)c1.CS(=O)(=O)[O-] [1-butyl-3-methylimidazolium methanesulfonate] + O
mass density [kg/m3], [2]
Settings | x1 = 0.025 | x1 = 0.05 | x1 = 0.075 | x1 = 0.1 | x1 = 0.148 | x1 = 0.199 | x1 = 0.251 | x1 = 0.298 | x1 = 0.346 | x1 = 0.441
298.15 K | 1038.1 | 1068.4 | 1089.3 | 1104.5 | 1123.9 | 1137.1 | 1145.7 | 1151.3 | 1154.9 | 1160.6
313.15 K | 1031.2 | 1059.7 | 1079.7 | 1093.5 | 1113.6 | 1126.8 | 1135.5 | 1141.2 | 1144.8 | 1150.6
323.15 K | 1025.9 | 1053.6 | 1073.1 | 1087.6 | 1106.6 | 1119.9 | 1128.6 | 1134.4 | 1138.1 | 1144
333.15 K | 1020.1 | 1047.1 | 1066.2 | 1080.5 | 1099.5 | 1112.9 | 1121.7 | 1127.6 | 1131.4 | 1137.3
343.15 K | 1013.9 | 1040.3 | 1059.2 | 1073.3 | 1092.3 | 1105.7 | 1114.7 | 1120.7 | 1124.6 | 1130.7
358.15 K | 1003.9 | 1029.7 | 1048.2 | 1062.3 | 1081.2 | 1094.9 | 1104.1 | 1110.3 | 1114.4 | 1120.7

O [water] + CCCCn1cc[n+](C)c1.CS(=O)(=O)[O-]
[2], x2 = 0
Settings | mass density [kg/m3]
333.15 K | 983.2
343.15 K | 977.8
358.15 K | 968.3
